We go through one compound from patent publication US6924309B2 (Children, Youth and Women's Health Service Incorporated, priority 1999, dated 2005).

Test [1] deals with human neutrophils. Briefly: Neutrophil degranulation: release of vitamin B12 binding protein. It counts as cell-based. The following applies: 20 μg/ml. As to the method: (§1) The activation of human neutrophils by nitro compounds was assessed by the ability to stimulate superoxide production (chemiluminescence response) and release of lysosomal enzymes from specific and azurophilic granules. Neutrophils were prepared from whole blood taken from normal healthy volunteers by the rapid-single step procedure^(41). Briefly, blood anticoagulated with heparin was carefully layered on a hypaque-ficoll medium of 1.114 g/ml and centrifuged in swing-out-buckets at 200 g/30 min. The leukocytes were resolved into two bands and the erythrocytes sedimented at the bottom of the tube. The second leukocyte band approximately 0.7 cm from the mononuclear cell containing band at the interface contained neutrophils of >98% purity and >99% viability (trypan blue dye exclusion criteria). The neutrophils were carefully harvested with a pasteur pipette, and washed and resuspended in tissue culture medium. The respiratory burst response of neutrophils was assessed by measuring superoxide production by the lucigenin dependent chemiluminescence assay essentially as described previously^(42). Briefly, 1×10^6 neutrophils (100 μl) in HBSS were treated with the nitro analogues of fatty acids (100 μl), then lucigenin was added and the volume made up. […]

The subject of test [2] is 5-LO. The test is described as follows: Effect on 5-LO catalysed oxidation of arachidonic acid. It counts as biochemical.
Another test has as its target T1, 12-LO (Sus scrofa, UniProt P16469).
T1 construct: purchased Cayman Chemical Company
T1 sequence (P16469 1-663): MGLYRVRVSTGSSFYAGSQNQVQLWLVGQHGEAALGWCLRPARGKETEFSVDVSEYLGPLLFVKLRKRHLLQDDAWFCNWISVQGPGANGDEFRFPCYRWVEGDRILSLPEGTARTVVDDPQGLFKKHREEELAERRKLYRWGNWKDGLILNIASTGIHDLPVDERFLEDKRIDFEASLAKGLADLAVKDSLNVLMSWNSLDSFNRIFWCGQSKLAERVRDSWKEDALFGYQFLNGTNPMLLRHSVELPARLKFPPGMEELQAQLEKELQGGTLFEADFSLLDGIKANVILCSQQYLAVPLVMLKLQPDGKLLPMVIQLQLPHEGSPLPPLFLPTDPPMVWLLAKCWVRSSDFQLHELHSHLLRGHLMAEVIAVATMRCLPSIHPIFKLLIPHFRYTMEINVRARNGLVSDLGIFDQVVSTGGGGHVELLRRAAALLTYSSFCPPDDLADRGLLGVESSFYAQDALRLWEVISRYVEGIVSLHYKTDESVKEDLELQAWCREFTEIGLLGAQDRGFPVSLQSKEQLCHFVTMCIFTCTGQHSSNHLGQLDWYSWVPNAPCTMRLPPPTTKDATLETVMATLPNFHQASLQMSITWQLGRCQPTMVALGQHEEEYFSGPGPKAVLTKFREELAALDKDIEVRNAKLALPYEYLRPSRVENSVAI
Briefly: Effect on 12-LO catalysed oxidation of arachidonic acid. It counts as biochemical, porcine.

Test [3] has as its system 5-LO. The test is described as follows: 5-LO catalysed oxidation of the nitro compounds (substrate test). It counts as biochemical. The following applies: pH 6.3 buffer, UV 234 nm. As to the method: Based on this consideration, 5-LO, 12-LO and 15-LO catalysed oxidation of the nitro compounds (4a, 4b, 6a, 6b, 8a and 8b) was investigated. Each of the nitro compounds was treated with 15-LO in pH 9.0 buffer (or 5-LO in pH 6.3 buffer and 12-LO in pH 7.4 buffer), and the formation of 15-hydroperoxy derivatives (or 5-hydroperoxy or 12-hydroperoxy derivatives) over time was monitored by UV spectroscopy at 234 nm.

Test [4] relates to Plasmodium falciparum isolates 3D7, FC27, K+. The test is described as follows: Radiometric (3H-hypoxanthine) assay on asexual blood stages of P. falciparum. It counts as cell-based. The essentials:
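Isolates grown in human O+ erythrocytes with 10% AB serum at 37 °C; cultures at 1×10^8 erythrocytes/ml were exposed to the fatty acids for 4 h, then pulsed with 3H-hypoxanthine for a further 18 h. Incorporated radioactivity was counted and expressed as % growth inhibition versus diluent-treated cultures.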

Test [5] deals with human neutrophils. The test is described as follows: Neutrophil lucigenin dependent chemiluminescence (superoxide production). It counts as cell-based. The following applies: 20 μM. As for the experimental part:
as §1, with “up. FIG. 7 illustrates the effects of Lx compounds on the neutrophil chemiluminescence reponse. Results are the means ±SEM of 4-12 experiments.” for “up.”

Test [6] has as its system human neutrophils. The test is described as follows: Neutrophil degranulation: release of β-glucuronidase. The following applies: 20 μg/ml. It counts as cell-based. As for the experimental part: as §1

As to `CCCCC/C=C\C/C=C\C/C=C\C/C=C\CCCC(CCC(=O)O)[N+](=O)[O-]` (stereo not shown) [Lx7, (a11-Z)-4-Nitrotricosa-8,11,14,17-tetraenoic acid], in the test on human neutrophils [1], the “Release of vitamin B12 binding protein (specific granule marker)” value is “as potent as 20:4n-6 and 22:6n-3”. Further, the “Effect on 5-LO catalysed oxidation of AA” value in the test with 5-LO [2] is “Activatory”. The “Effect on 12-LO catalysed oxidation of AA” value at 12-LO is given as “Substrate”. Further, the “Substrate for 5-LO” value in the test on 5-LO [3] is “not for 5-LO”. Besides, the “Antimalarial activity (in words)” value in test [4] is “did not have appreciable antimalarial activity”. Moreover, the Neutrophil chemiluminescence response entry with human neutrophils [5] is “marginal compared to 20:4n-6 and 22:6n-3”. Further, the “Release of β-glucuronidase (azurophilic granule marker)” value in the test on human neutrophils [6] was “as potent as 20:4n-6 and 22:6n-3”.
